Test results as given in patent US11802110B2, “2-amino-N-(arylsulfinyl)-acetamide compounds as inhibitors of bacterial aminoacyl-tRNA synthetase” (priority 2016, dated 2023).
≈ marks a conversion by molar mass, not a printed value. Like-named read-outs stand apart in the source and are kept apart here.

Tests used:
[1] = Human cell viability (cytotoxicity), ATP levels by CellTiter-Glo; assay type: cell-based; settings: HepG2 cells (ATCC HB-8065), 24 hours incubation, read-out: IC50 (μg/mL), Cytotoxicity in HepG2 ATCC HB-8065 Cell Line
Description: Compounds were assessed for potential non-specific cytotoxic effects against a human hepatic cell line (HepG2 ATCC HB-8065). 96-well plates were seeded with HepG2 cells in concentration of 15,000 cells per well in 100 μL of MEM growth media completed with 1% NEAA and 1% sodium pyruvate. Border wells were filled with 100 μL of sterile PBS. Two days upon cells incubation, the compounds were added. Compound dilutions were prepared in 96-well V-bottom plate in pure DMSO. Growth media from 5 plates were aspirated and replaced with 98.7 μL of fresh growth media. 1.28 μL of compounds prepared in V-bottom plates were transferred with multichannel pipette into test plates (78.1× dilution). Final DMSO concentration was 1.28% per well. In control wells, 1.28 μL of DMSO was added in 98.7 μL of media. Compounds were tested in duplicates. Cells were incubated with compounds for 24 hours when cell viability was assessed by measuring ATP levels. ATP levels were measured by adding 50 μL of CellTiter-Glo reagent to each well and after 5 minutes of incubation luminescence was measured with SpectraMax i3. The potential effect of tested compounds on cell viability was determined by comparing the signal obtained in presence of different concentrations of the compounds with those obtained in the presence of DMSO only. The potential effects were then calculated and presented as IC50 values (μg/mL).

[2] = tested on: Escherichia coli ATCC 25922 TolC deficient mutant (E. coli EFFLUX del); test: microbe, parasite or virus in culture; assay type: cell-based
Description: (§1) Minimum Inhibitory Concentrations (MICs) were determined by the broth micro-dilution method performed according to Clinical Laboratory Standards Institute guidelines. For testing, 5 mg/mL DMSO solutions were prepared by dissolving solids in DMSO. Standard antibiotics were prepared according to CLSI guidelines as 5 mg/mL stock solutions. Upon DMSO stock solutions preparation, the working solutions in MH media were prepared by adding 38.4 μL of stock solution to 1461.6 μL of MH media. Out of these working solutions 100 μL were transferred to wells in the third column of 96-well assay plates. Assay plates were previously filled with 50 μL of MH media in all wells except for the wells in the third column. Upon compounds and antibiotics addition, 50 μL was transferred from the third to the fourth column, then from the fourth to the fifth and so on.
(§2) MIC value was determined by visual inspection of bacterial growth within 96-well plates. The first column in which there was no visible growth of bacteria was determined as MIC value for compound or antibiotic tested in that particular row. ATCC strains were used as reference strains for which there is a determined value of MIC values for standard antibiotics. The assay is considered valid when MIC values for standard antibiotics are within CLSI designated range for ATCC strain tested.

[3] = tested on: Pseudomonas aeruginosa ATCC 27853; test: Study 4 - MIC by broth micro-dilution (CLSI); assay type: cell-based
Description: as §1, §2

[4] = tested on: Enterobacter cloacae B1966 clinical isolate; test: Study 4 - MIC by broth micro-dilution (CLSI); assay type: cell-based
Description: as §1, §2

[5] = tested on: Haemophilus influenzae ATCC 49247; test: Study 4 - MIC by broth micro-dilution (CLSI); assay type: cell-based; settings: G = H. influenzae ATCC 49247
Description: as §1, §2

[6] = tested on: Escherichia coli ATCC 25922; test: Study 4 - MIC by broth micro-dilution (CLSI); assay type: cell-based
Description: as §1, §2

[7] = tested on: Klebsiella pneumoniae ATCC 700603; test: Study 4 - MIC by broth micro-dilution (CLSI); assay type: cell-based
Description: as §1, §2

[8] = tested on: Acinetobacter baumannii B1931 clinical isolate; test: Study 4 - MIC by broth micro-dilution (CLSI); assay type: cell-based
Description: as §1, §2

[9] = molecular target: E. Coli LeuRS (Escherichia coli (strain K12), UniProt P07813); test: Study 2 - Isothermal titration calorimetry (ITC); assay type: binding; settings: 25° C., pH 7.5, mean ± SD
Description: Escherichia coli BL21(DE3) cells transformed with plasmid pQE-60 containing the open-reading frame sequence of one targeted aaRS (i.e., LeuRS) were induced with 1 mM IPTG (isopropyl β-D-1-thiogalactopyranoside) for 3 hours at 37° C. Bacterial cells were harvested and lysed with 20 mM HEPES (4-(2-hydroxyethyl)-1-piperazinylethane-sulfonic acid) (pH 7.5), 300 mM NaCl, 15 mM imidazole and 1 mM DTT (1,4-dithio-D-threitol). The pathogenic aaRS was first purified by nickel affinity standard chromatography. The eluted protein was concentrated and then further purified by gel filtration using 50 mM HEPES (pH 7.5), 150 mM NaCl buffer.
ITC studies were carried out using a Microcal ITC200 instrument (GE Healthcare). Protein concentration was determined by spectrophotometry by measuring the absorbance at 280 nm using a theoretical molar extinction coefficient of 169,140 M^−1cm^−1. Ligand stock solutions were prepared in DMSO at 62.5 mM concentration. The titrations were performed at 25° C. with 7.5-100 μM E. Coli LeuRS in 50 mM HEPES, 150 mM NaCl, pH 7.5 buffer containing 1% DMSO (v/v). The protein solution in the 280 μL sample cell was titrated with the inhibitor solution (diluted to 75-3000 μM in the same buffer as the protein) using 1-2 μL injections every 120-140 seconds. All titrations were repeated at least two times. To correct for heats of dilution and mixing, the final baseline consisting of small peaks of identical size at the end of each experiment was subtracted. The experimental data were fitted to a theoretical titration curve (one site model) using MicroCal Origin 7 SR4 software.
Note that Compounds R-4.1 and S-4.1 (in Table 15, below) correspond to Compounds V-i and V-ii (in Tables 13 and 14, above), respectively.

[10] = Pseudomonas aeruginosa, ATCC27853
[11] = Haemophilus influenzae, ATCC49247, read-out: MIC
[12] = Klebsiella pneumoniae, ATCC700603

Sequence of E. Coli LeuRS (P07813 whole entry): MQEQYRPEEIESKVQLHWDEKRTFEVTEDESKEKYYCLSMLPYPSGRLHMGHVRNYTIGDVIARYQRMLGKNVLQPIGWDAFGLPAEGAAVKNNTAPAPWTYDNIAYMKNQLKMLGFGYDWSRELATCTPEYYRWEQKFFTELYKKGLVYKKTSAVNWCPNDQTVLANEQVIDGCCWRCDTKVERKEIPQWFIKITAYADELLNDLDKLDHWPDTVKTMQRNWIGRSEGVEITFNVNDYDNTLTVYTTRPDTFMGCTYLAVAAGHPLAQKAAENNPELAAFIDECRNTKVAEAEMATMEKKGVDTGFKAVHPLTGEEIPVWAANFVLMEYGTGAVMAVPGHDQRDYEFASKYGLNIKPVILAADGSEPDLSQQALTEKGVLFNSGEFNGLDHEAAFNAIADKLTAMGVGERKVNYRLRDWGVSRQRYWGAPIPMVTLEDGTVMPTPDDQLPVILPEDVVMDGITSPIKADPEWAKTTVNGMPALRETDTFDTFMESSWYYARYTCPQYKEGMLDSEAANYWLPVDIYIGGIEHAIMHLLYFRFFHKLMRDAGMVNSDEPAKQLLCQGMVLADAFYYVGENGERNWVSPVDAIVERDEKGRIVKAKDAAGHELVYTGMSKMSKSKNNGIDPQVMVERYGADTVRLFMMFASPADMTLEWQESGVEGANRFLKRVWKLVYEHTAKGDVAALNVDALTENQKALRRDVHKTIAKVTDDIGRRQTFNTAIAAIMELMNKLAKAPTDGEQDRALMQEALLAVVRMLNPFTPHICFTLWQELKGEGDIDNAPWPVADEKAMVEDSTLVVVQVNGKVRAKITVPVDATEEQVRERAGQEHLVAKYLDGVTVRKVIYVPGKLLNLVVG

CCC(C)C(N)C(=O)N[S+]([O-])c1ccccc1 (stereo not shown) [4.2]
IC50 at 24 h [1]: > 32 µg/mL

CC(C)C(N)C(=O)N[S+]([O-])c1ccccc1 (stereo not shown) [4.5]
IC50 at 24 h [1]: > 32 µg/mL

CC(C)CC(N)C(=O)N[S+]([O-])c1cccc(-c2ccn(C)n2)c1 (stereo not shown) [4.26]
MIC ([2]; Escherichia coli, ATCC25922): 64 µg/mL (≈ 191 µM)
MIC [3, 10]: > 64 µg/mL
MIC ([4]; Enterobacter cloacae): > 64 µg/mL
MIC [5, 11]: > 64 µg/mL
MIC ([6]; Escherichia coli, ATCC25922): 64 µg/mL (≈ 191 µM)
MIC [7, 12]: > 64 µg/mL
MIC ([8]; Acinetobacter baumannii): > 64 µg/mL
IC50 at 24 h [1]: > 64 µg/mL

CC(C)CC(N)C(=O)N[S+]([O-])c1ccc(C(C)(C)C)cc1 (stereo not shown) [4.28]
IC50 at 24 h [1]: > 64 µg/mL

C[C@@H](O)[C@H]1C(=O)N2C(C(=O)O)=C(S[C@@H]3CN[C@H](C(=O)N(C)C)C3)[C@H](C)[C@H]12 [Meropenem]
MIC ([2]; B = E. coli EFFLUX del): 0.5 µg/mL (≈ 1.3 µM)
MIC ([3]; E = P. aeruginosa ATCC 27853): >64 µg/mL
MIC ([4]; C = Enterobacter cloacae B1966): 0.5 µg/mL (≈ 1.3 µM)
MIC [5]: 4 µg/mL (≈ 10.4 µM)
MIC ([6]; A = E. coli ATCC 25922): 0.5 µg/mL (≈ 1.3 µM)
MIC ([7]; D = KI. pneumoniae ATCC 700603): 0.5 µg/mL (≈ 1.3 µM)
MIC ([8]; F = A. baumannii B1931): 8 µg/mL (≈ 20.9 µM)

CC(C)CC(N)C(=O)N[S+]([O-])c1cccc(C#N)c1 (stereo not shown) [4.19]
Kd [9]: 3.35 ± 0.48 nM
ΔG [9]: -11.56 ± 0.09 kcal/mol
ΔH [9]: -8.49 ± 0.38 kcal/mol
MIC [3, 10]: > 64 µg/mL
MIC ([4]; Enterobacter cloacae): 8 µg/mL (≈ 28.6 µM)
MIC [5, 11]: 8 µg/mL (≈ 28.6 µM)
MIC ([6]; Escherichia coli, ATCC25922): 2 µg/mL (≈ 7.16 µM)
MIC [7, 12]: 4 µg/mL (≈ 14.3 µM)
MIC ([8]; Acinetobacter baumannii): 64 µg/mL (≈ 229 µM)
IC50 at 24 h [1]: > 64 µg/mL

CC(C)CC(C)(N)C(=O)N[S+]([O-])c1ccccc1 (stereo not shown) [4.7]
Kd [9]: 1820 ± 256 nM
ΔG [9]: -7.84 ± 0.09 kcal/mol
ΔH [9]: -1.66 ± 0.75 kcal/mol
IC50 at 24 h [1]: > 64 µg/mL

CC[C@H]1OC(=O)[C@H](C)[C@@H](O[C@H]2C[C@@](C)(OC)[C@@H](O)[C@H](C)O2)[C@H](C)[C@@H](O[C@@H]2O[C@H](C)C[C@H](N(C)C)[C@H]2O)[C@](C)(O)C[C@@H](C)CN(C)[C@H](C)[C@@H](O)[C@]1(C)O [Azithromycin]
MIC ([2]; Escherichia coli, ATCC25922): 0.5 µg/mL (≈ 0.668 µM)
MIC ([3]; Pseudomonas aeruginosa, ATCC27853, E = P. aeruginosa ATCC 27853, read-out: MIC): 32 µg/mL (≈ 42.7 µM)
MIC ([4]; C = Enterobacter cloacae B1966, read-out: MIC): 16 µg/mL (≈ 21.4 µM)
MIC [5, 11]: 2 µg/mL (≈ 2.67 µM)
MIC ([6]; Escherichia coli, ATCC25922, A = E. coli ATCC 25922, read-out: MIC): 4 µg/mL (≈ 5.34 µM)
MIC ([7]; Klebsiella pneumoniae, ATCC700603, D = KI. pneumoniae ATCC 700603, read-out: MIC): 32 µg/mL (≈ 42.7 µM)
MIC ([8]; Acinetobacter baumannii, F = A. baumannii B1931, read-out: MIC): 16 µg/mL (≈ 21.4 µM)

COCc1cccc([S+]([O-])NC(=O)C(N)CC(C)C)c1 (stereo not shown) [4.23]
Kd [9]: 17.5 ± 1.1 nM
ΔG [9]: -10.58 ± 0.03 kcal/mol
ΔH [9]: -7.06 ± 0.75 kcal/mol

CCC(N)C(=O)N[S+]([O-])c1cccc(F)c1 (stereo not shown) [4.10]
IC50 at 24 h [1]: > 64 µg/mL

Cc1ccc([S+]([O-])NC(=O)C(N)CC(C)C)c(F)c1 (stereo not shown) [4.38]
IC50 at 24 h [1]: > 64 µg/mL

CC(C)CC(N)C(=O)N[S+]([O-])c1cccs1 (stereo not shown) [4.41]
IC50 at 24 h [1]: > 64 µg/mL

CC(C)C[C@@H](N)C(=O)N[S+]([O-])c1ccccc1 (stereo partly shown) [4.6]
IC50 at 24 h [1]: > 32 µg/mL
